# Laboratory results as given in US7999119B2, “Compounds having CRTH2 antagonist activity” (Oxagen Limited, priority 2006, dated 2011).
# Where “and” joins values, the source holds several entries; their conditions need not be identical. Equal entries are not always repeated. Where two headings read alike, the source gives them in different places.
# Assays:
# [1] = Pharmacokinetics following oral administration in the rat; format: in vivo
# Method: Investigation of Pharmacokinetics of Compounds of General Formula (I) Following Oral Administration in the Rat
# Rats were weighed on the day of dosing.
# The test material was prepared as a 0.3 mg/mL suspension in 1% carboxy-methyl-cellulose (CMC).
# Three groups of 3 rats were dosed as follows:
# Doses were administered as a single oral dose using a gavage tube at a constant dose volume of 10 mL/kg.
# At each sampling time point blood samples (approximately 0.3 mL) was taken from a catheter inserted into a lateral tail vein prior to the start of the experiment. The final blood sample (approximately 2 mL) from each animal was taken by cardiac puncture under isoflurane anaesthesia following which the animal was killed by exsanguination. Blood samples were taken into individual heparinised containers. Blood samples were collected at the following times post-dose:
# Following collection, the blood samples were centrifuged (approximately 10,000×g, 2 min at 4° C.) and the plasma stored as one aliquot at approximately −20° C. pending analysis of drug concentrations by LC-MS/MS.
# The plasma samples were analysed for test material concentrations at BioDynamics using an LC-MS/MS method developed at BioDynamics.
# [2] = system: PGD2 induced eosinophil shape change; assay: Human whole blood eosinophil shape change assay; format: cell-based; conditions: Homo sapiens, Eosinophil
# In short: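 Compound added to human whole blood and incubated 15 min at 37° C., 5% CO2, before cell fixation and red-cell lysis. Leukocytes analysed by FACS, eosinophils gated by autofluorescence, 2000 events per sample, triplicate; read-out is inhibition of PGD2-induced eosinophil shape change.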
# [3] = system: DK-PGD2-induced blood eosinophilia; assay: Inhibition of DK-PGD2-induced blood eosinophilia in rats; format: in vivo, rat; conditions: female rats, oral dosing 30 min before 10 μg DK-PGD2 intracardiac; ED50 from dose-response curve; the values are: ED50
# Method: Evaluation of Compounds of General Formula (I) as Inhibitors of 13,14-dihydro-15-keto prostaglandin D2 (DK-PGD2)-Induced Blood Eosinophilia in Rats
# The test compound was dissolved in DMSO and diluted with water to give a final dosing volume of 2 ml/kg.
# Female rats (175-250 g; UH colony) were dosed orally with test compound (or vehicle).
# 30 min after dosing all animals were anaesthetised with isoflurane.
# Following induction of anaesthesia, animals receive an intracardiac injection of 10 μg DK-PGD2 in 0.3 ml heparinised (10 U/ml) saline. Control animals received an injection of 0.3 ml heparinised saline.
# 60 min after the intracardiac injection, animals were injected with an overdose of pentobarbitone sodium and a blood sample was taken (into heparin) by cardiac puncture while the rat was anaesthetised but not dead.
# An aliquot of blood (100 μl) was added to Turk's solution and the total leukocyte count determined with a haemocytometer.
# A further aliquot of blood (500 μl) was mixed with an equal volume of 4% Dextran (mw 500,000) and the erythrocytes allowed to settle. A cytospin preparation was made from the resulting leukocyte rich fraction.
# Cytospin preparations were fixed with methanol (5 min) and stained with May-Grunwald (5 min) and Giemsa (15 min) stains. Finally cytospins were washed in phosphate buffer (pH6.8) and air dried.
# Differential leukocyte counts were obtained from the cytospin preparations.
# Blood eosinophil numbers were determined from the total leukocyte count and the percentage eosinophils (differential count).
# Because it was impractical to generate sufficient data in any given experiment, data were obtained over a number of replicate experiments. Data from these replicate experiments were pooled, to provide at least 5 animals in each group and a dose-response curve fitted following a significance test (Mann Whitney) to determine whether or not DK-PGD2 caused a significant increase in blood eosinophils (GraphPad, Prism). A difference between groups was taken to be significant when P<0.05. ED50 values were calculated from the dose-response curve.
# [4] = rat, 3 mg/kg p.o, individual male animals, 3 mg/kg
smiles,measurement,setting,value
"Cc1c(Cc2ccccc2S(=O)(=O)c2ccc(F)cc2)c2cc(F)ccc2n1CC(=O)O [Compound 3, 2-(5-fluoro-3-(2-(4-fluorophenylsulfonyl)benzyl)-2-methyl-1H-indol-1-yl)acetic acid]",concentration at 0.25 h,"[1]; male, rat, plasma, po, 3 mg/kg, rat, 3 mg/kg oral, 0.25 h, individual male animals, read-out: Concentration in Blood",836 ng/mL
same,concentration at 0.25 h,"[1]; male, rat, plasma, po, 3 mg/kg, rat, 3 mg/kg oral, 0.25 h, mean, read-out: Concentration in Blood, Mean",1100 ng/mL
same,concentration at 0.5 h,"[1]; male, rat, plasma, po, 3 mg/kg, rat, 3 mg/kg oral, 0.5 h, individual male animals, read-out: Concentration in Blood",2060 ng/mL
same,concentration at 0.5 h,"[1]; male, rat, plasma, po, 3 mg/kg, rat, 3 mg/kg oral, 0.5 h, mean, read-out: Concentration in Blood, Mean",2250 ng/mL
same,concentration at 1 h,"[1]; male, rat, plasma, po, 3 mg/kg, rat, 3 mg/kg oral, 1 h, individual male animals, read-out: Concentration in Blood",2490 ng/mL
same,concentration at 1 h,"[1]; male, rat, plasma, po, 3 mg/kg, rat, 3 mg/kg oral, 1 h, mean, read-out: Concentration in Blood, Mean",3140 ng/mL
same,concentration at 2 h,"[1]; male, rat, plasma, po, 3 mg/kg, rat, 3 mg/kg oral, 2 h, individual male animals, read-out: Concentration in Blood",4320 ng/mL
same,concentration at 2 h,"[1]; male, rat, plasma, po, 3 mg/kg, rat, 3 mg/kg oral, 2 h, mean, read-out: Concentration in Blood, Mean",4080 ng/mL
same,concentration at 4 h,"[1]; male, rat, plasma, po, 3 mg/kg, rat, 3 mg/kg oral, 4 h, individual male animals, read-out: Concentration in Blood",3130 ng/mL
same,concentration at 4 h,"[1]; male, rat, plasma, po, 3 mg/kg, rat, 3 mg/kg oral, 4 h, mean, read-out: Concentration in Blood, Mean",2400 ng/mL
same,concentration at 6 h,"[1]; male, rat, plasma, po, 3 mg/kg, rat, 3 mg/kg oral, 6 h, individual male animals, read-out: Concentration in Blood",1330 ng/mL
same,concentration at 6 h,"[1]; male, rat, plasma, po, 3 mg/kg, rat, 3 mg/kg oral, 6 h, mean, read-out: Concentration in Blood, Mean",1140 ng/mL
same,concentration at 8 h,"[1]; male, rat, plasma, po, 3 mg/kg, rat, 3 mg/kg oral, 8 h, individual male animals, read-out: Concentration in Blood",1160 ng/mL
same,concentration at 8 h,"[1]; male, rat, plasma, po, 3 mg/kg, rat, 3 mg/kg oral, 8 h, mean, read-out: Concentration in Blood, Mean",847 ng/mL
same,concentration at 12 h,"[1]; male, rat, plasma, po, 3 mg/kg, rat, 3 mg/kg oral, 12 h, mean, read-out: Concentration in Blood, Mean",277 ng/mL
same,concentration at 24 h,"[1]; male, rat, plasma, po, 3 mg/kg, rat, 3 mg/kg oral, 24 h, mean, read-out: Concentration in Blood, Mean",16.1 ng/mL
same,AUC(0-inf),"[1]; male, rat, plasma, po, 3 mg/kg, rat, 3 mg/kg p.o, individual male animals, read-out: AUCinf",24400 ng·h/mL
same,Cmax,"[1]; male, rat, plasma, po, 3 mg/kg, rat, 3 mg/kg p.o, individual male animals, read-out: Cmax",4320 ng/mL
same,Tmax,"[1]; male, rat, plasma, po, 3 mg/kg, rat, 3 mg/kg p.o, individual male animals, read-out: Tmax",2 h
same,half-life,"[1]; male, rat, plasma, po, 3 mg/kg, rat, 3 mg/kg p.o, individual male animals, read-out: T½ (converted)",3.26 h
same,AUC(0-inf),"[1]; male, rat, plasma, po, 3 mg/kg, rat, 3 mg/kg p.o, mean, summary without unit (Table 12), read-out: AUCinf (mean)",21100 ng·h/mL
same,Cmax,"[1]; male, rat, plasma, po, 3 mg/kg, rat, 3 mg/kg p.o, mean, summary without unit (Table 12), read-out: Cmax (mean)",4080 ng/mL
same,AUC(0-inf),"[1]; male, rat, plasma, po, 3 mg/kg, rat, 3 mg/kg p.o, mean, read-out: AUCinf, Mean",21100 ng·h/mL
same,Cmax,"[1]; male, rat, plasma, po, 3 mg/kg, rat, 3 mg/kg p.o, mean, read-out: Cmax, Mean",4080 ng/mL
same,Tmax,"[1]; male, rat, plasma, po, 3 mg/kg, rat, 3 mg/kg p.o, mean, read-out: Tmax, Mean",2 h
same,half-life,"[1]; male, rat, plasma, po, 3 mg/kg, rat, 3 mg/kg p.o, mean, read-out: T½, Mean (converted)",2.8 h
same,Fold over IC50 at 12 h,"[1]; mean blood concentration at 12 h (rat, 3 mg/kg p.o.) divided by whole blood IC50 in ng/ml",102
same,Concentration in Blood,"[1]; rat, 3 mg/kg oral, 0.25 h, individual male animals, 3 mg/kg",1130.7 ng/mL and 1337.2 ng/mL
same,Concentration in Blood,"[1]; rat, 3 mg/kg oral, 0.5 h, individual male animals, 3 mg/kg",2205.2 ng/mL and 2487.5 ng/mL
same,Concentration in Blood,"[1]; rat, 3 mg/kg oral, 1 h, individual male animals, 3 mg/kg",3547.8 ng/mL and 3393.7 ng/mL
same,Concentration in Blood,"[1]; rat, 3 mg/kg oral, 2 h, individual male animals, 3 mg/kg",3685.1 ng/mL and 4221.0 ng/mL
same,Concentration in Blood,"[1]; rat, 3 mg/kg oral, 4 h, individual male animals, 3 mg/kg",2023.1 ng/mL and 2053.8 ng/mL
same,Concentration in Blood,"[1]; rat, 3 mg/kg oral, 6 h, individual male animals, 3 mg/kg",995.0 ng/mL and 1098.0 ng/mL
same,Concentration in Blood,"[1]; rat, 3 mg/kg oral, 8 h, individual male animals, 3 mg/kg",699.5 ng/mL and 678.5 ng/mL
same,Concentration in Blood,"[1]; rat, 3 mg/kg oral, 12 h, individual male animals, 3 mg/kg",465.3 ng/mL and 163.3 ng/mL and 201.1 ng/mL
same,Concentration in Blood,"[1]; rat, 3 mg/kg oral, 24 h, individual male animals, 3 mg/kg",38.2 ng/mL and 0.0 ng/mL and 10.1 ng/mL
same,AUCinf,[1]; [4],17738 ng·h/mL and 19110 ng·h/mL
same,Cmax,[1]; [4],3685 ng/mL and 4221 ng/mL
same,T½,[1]; [4],2.26 h and 2.62 h
same,IC50,"[2]; 10 nm PGD2-induced eosinophil shape change, human whole blood, read-out: Whole Blood IC50",6 nM
same,IC50,"[2]; Table 12 summary of whole blood eosinophil shape change IC50, read-out: IC50 (μmol)",6 nM
same,IC50,"[2]; whole blood eosinophil shape change IC50 converted to ng/mL, read-out: IC50",2.7 ng/mL
same,Potency in inhibition of DK-PGD2-induced blood eosinophilia,[3],0.01 mg/kg
